Measurements taken from PubChem BioAssay AID256 (DTP/NCI, 2004).
Values joined by “and” are separate entries in the source; they are usually repeats but may differ in a detail not shown here. Identical values can stand only once. Inconclusive results and toxic doses are left out. How the source made its calls: active means survival T/C of 150% or more; inactive means T/C below 125% in these data.

System: CD2F1 mice, L1210 leukemia ip, survival T/C
Assay: NCI In Vivo Anticancer Drug Screen. Data for tumor model L1210 Leukemia (intraperitoneal) in CD2F1 (CDF1) mice
Conditions: higher = longer survival
Outline: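 Ratio T/C, where T is the treated-group value and C the vehicle-dosed control value, from mice implanted with a transplantable tumor.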

[1] = endpoint: mean survival time, dose: 100.0 mg/kg/injection, schedule: Q04DX003 (ip), vehicle: saline with Tween-80
[2] = endpoint: mean survival time, dose: 100.0 mg/kg/injection, schedule: Q04DX003 (ip), vehicle: saline
[3] = endpoint: mean survival time, dose: 200.0 mg/kg/injection, schedule: Q04DX003 (ip), vehicle: saline with Tween-80
[4] = endpoint: mean survival time, dose: 200.0 mg/kg/injection, schedule: Q04DX003 (ip), vehicle: saline
[5] = endpoint: mean survival time, dose: 400.0 mg/kg/injection, schedule: Q04DX003 (ip), vehicle: saline with Tween-80
[6] = endpoint: mean survival time, dose: 400.0 mg/kg/injection, schedule: Q04DX003 (ip), vehicle: saline
[7] = endpoint: mean survival time, dose: 100.0 mg/kg/injection, schedule: Q01DX009 (ip), vehicle: saline with Tween-80
[8] = endpoint: mean survival time, dose: 200.0 mg/kg/injection, schedule: Q01DX009 (ip), vehicle: saline with Tween-80
[9] = endpoint: mean survival time, dose: 400.0 mg/kg/injection, schedule: Q01DX009 (ip), vehicle: saline with Tween-80
[10] = endpoint: mean survival time, dose: 100.0 mg/kg/injection, schedule: Q01DX001 (ip), vehicle: saline with Tween-80
[11] = endpoint: mean survival time, dose: 200.0 mg/kg/injection, schedule: Q01DX001 (ip), vehicle: saline with Tween-80
[12] = endpoint: mean survival time, dose: 400.0 mg/kg/injection, schedule: Q01DX001 (ip), vehicle: saline with Tween-80

Measured: T/C

Nc1nc(NNC(=O)c2ccccc2)c2nonc2n1
inactive: endpoint: mean survival time, dose: 12.5 mg/kg/injection, schedule: Q01DX005 (ip), vehicle: other 95 % of control | endpoint: mean survival time, dose: 25.0 mg/kg/injection, schedule: Q01DX005 (ip), vehicle: other 95 % of control | endpoint: mean survival time, dose: 50.0 mg/kg/injection, schedule: Q01DX005 (ip), vehicle: other 91 % of control | endpoint: mean survival time, dose: 200.0 mg/kg/injection, schedule: Q01DX005 (ip), vehicle: other 91 % of control

CCC1(C)C=CCC(C)(C)S1 (stereo unspecified)
inactive: endpoint: mean survival time, dose: 100.0 mg/kg/injection, schedule: Q04DX002 (ip), vehicle: saline with Tween-80 102 % of control | endpoint: mean survival time, dose: 200.0 mg/kg/injection, schedule: Q04DX002 (ip), vehicle: saline with Tween-80 91 % of control

CC(C)C1CCC(C)(Cl)C2CCC(C)(Cl)CC12 (stereo unspecified)
inactive: [1] 96 % of control | [2] 104 % of control | [3] 91 % of control | [4] 102 % of control | [5] 93 % of control | [6] 95 % of control

CC1=CCCC1
inactive: [2] 98 % of control | [4] 101 % of control | [6] 95 % of control

CCCCCCCC(=O)Nc1cc(C(F)(F)F)ccc1Cl
inactive: [7] 93 % of control | [8] 96 % of control | [9] 94 % of control

ClC1(Cl)C2COCOCC21 (stereo unspecified)
inactive: [10] 91 % of control | [11] 91 % of control | [12] 95 % of control

O=C(CBr)Nc1cc([N+](=O)[O-])ccc1O
inactive: endpoint: mean survival time, dose: 6.25 mg/kg/injection, schedule: Q01DX009 (ip), vehicle: saline with Tween-80 91 % of control | endpoint: mean survival time, dose: 12.5 mg/kg/injection, schedule: Q01DX009 (ip), vehicle: saline with Tween-80 98 % of control

COC(=O)NC1=Nc2ccccc2-c2ccccc2N1
inactive: [1] 101 % of control | [3] 96 % of control | [5] 96 % of control

ClCCCN1CCN(CCCl)CC1
active: endpoint: median survival time, dose: 10.0 mg/kg/injection, schedule: Q01DX009 (ip), vehicle: saline 155 % of control and 177 % of control and 209 % of control
inactive: endpoint: median survival time, dose: 2.5 mg/kg/injection, schedule: Q01DX009 (ip), vehicle: saline 113 % of control and 115 % of control | endpoint: median survival time, dose: 20.0 mg/kg/injection, schedule: Q01DX009 (ip), vehicle: saline 109 % of control | endpoint: median survival time, dose: 40.0 mg/kg/injection, schedule: Q01DX009 (ip), vehicle: saline 88 % of control and 90 % of control

CCCCC(=O)Nc1ccc(Cl)cc1
inactive: [10] 101 % of control | [11] 95 % of control | [12] 106 % of control

O=C(O)CCC(=O)c1ccc(Cl)cc1
inactive: endpoint: mean survival time, dose: 3.13 mg/kg/injection, schedule: Q04DX002 (ip), vehicle: saline with Tween-80 112 % of control | endpoint: mean survival time, dose: 6.25 mg/kg/injection, schedule: Q04DX002 (ip), vehicle: saline with Tween-80 97 % of control | endpoint: mean survival time, dose: 12.5 mg/kg/injection, schedule: Q04DX002 (ip), vehicle: saline with Tween-80 93 % of control | endpoint: mean survival time, dose: 25.0 mg/kg/injection, schedule: Q04DX002 (ip), vehicle: saline with Tween-80 97 % of control | endpoint: median survival time, dose: 200.0 mg/kg/injection, schedule: Q04DX002 (ip), vehicle: saline with Tween-80 94 % of control

CC(C)(C)N[P+](Cc1ccc(C[P+](NC(C)(C)C)(NC(C)(C)C)c2ccccc2)cc1)(NC(C)(C)C)c1ccccc1
inactive: endpoint: mean survival time, dose: 1.56 mg/kg/injection, schedule: Q04DX003 (ip), vehicle: saline 109 % of control | endpoint: mean survival time, dose: 3.13 mg/kg/injection, schedule: Q04DX003 (ip), vehicle: saline 95 % of control

NC(=O)C(Cl)(Cl)Cl
inactive: [7] 107 % of control | [2] 103 % of control | [8] 104 % of control | [4] 99 % of control | [9] 103 % of control | [6] 99 % of control

COc1ccc(NC2=NCCS2)cc1
inactive: [1] 94 % of control | [3] 101 % of control

ClCC(Cl)C(Cl)CCl (stereo unspecified)
inactive: endpoint: mean survival time, dose: 50.0 mg/kg/injection, schedule: Q01DX001 (ip), vehicle: saline with Tween-80 95 % of control | [10] 109 % of control | [11] 86 % of control
